In BindingDB's records for doi:10.1016/j.chembiol.2010.05.008 (Kyowa Hakko Kogyo, 2010):

What follows are compounds tested against Nicotinamide phosphoribosyltransferase (Homo sapiens, UniProt P43490) (assay: In Vitro Inhibition Assay).
Chain of Nicotinamide phosphoribosyltransferase (P43490 whole entry): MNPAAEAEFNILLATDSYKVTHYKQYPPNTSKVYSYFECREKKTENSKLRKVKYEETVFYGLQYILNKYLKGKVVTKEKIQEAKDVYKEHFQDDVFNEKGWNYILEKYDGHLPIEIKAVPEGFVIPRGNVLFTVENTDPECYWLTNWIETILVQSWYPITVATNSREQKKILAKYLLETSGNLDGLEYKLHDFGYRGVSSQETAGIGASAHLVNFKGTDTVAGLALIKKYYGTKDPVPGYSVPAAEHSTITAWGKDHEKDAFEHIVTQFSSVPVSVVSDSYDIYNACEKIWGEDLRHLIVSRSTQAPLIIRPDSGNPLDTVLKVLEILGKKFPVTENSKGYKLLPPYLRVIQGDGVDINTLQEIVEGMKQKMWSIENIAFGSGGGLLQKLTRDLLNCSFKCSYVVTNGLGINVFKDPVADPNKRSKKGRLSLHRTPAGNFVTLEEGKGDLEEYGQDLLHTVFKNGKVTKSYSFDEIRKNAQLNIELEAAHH

Structure (SMILES) | IC50
C#CCN(Cc1cc2c(=O)n(C)c(CN3CCN(C)CC3)nc2cc1Cl)c1ccc(C(=O)NCc2cccnc2)cc1 | 0.00023 µM
C#CCN(Cc1cc2c(=O)n(C)c(CN3CCN(C)CC3)nc2cc1Cl)c1ccc(C(=O)NCc2ccccn2)cc1 [MPI-0482593] | 0.074 µM
C#CCN(Cc1cc2c(=O)n(C)c(CN3CCN(CCN)CC3)nc2cc1Cl)c1ccc(C(=O)NCc2ccccn2)cc1 [MPI-0482594] | 0.029 µM
